From US20260263413A1 (priority 2019, published 2026)

Key:
[1] = Pharmacokinetic (PK) data from oral administration of DHM in enteric capsules, with or without sodium caprate; assay type: in vivo, Sprague-Dawley rats; details: Sprague-Dawley, rat, blood; for Tmax / AUC / Cmax: po; for AUC: DHM AUC; for Cmax: DHM Cmax
[2] = Pharmacokinetic (PK) data from intravenous (IV) administration of DHM, blood samples analysed by LC-MS/MS; assay type: in vivo, Sprague-Dawley rats; details: Sprague-Dawley, rat, 1 mg/kg
Protocol: The DUNHM was administered in an 0.9% saline solution. No sodium caprate (sodium decanoate, Na caprate) was administered.

[3] = background statement, ref. [31]; cited from earlier work
[4] = in vivo; details: Sprague-Dawley, rat, 1.3 mg/kg
Protocol: A pharmacokinetic study can be carried out to evaluate animal pharmacokinetics.
A blood sample was collected from each rat at predetermined times and analyzed with LC-MS/MS. […] Error bars for each point in time based on the results for each of the rats in the set are shown. […] Bioavailability (Fabs) was calculated as
where AUCoral and Doral indicate the AUC and dosage for a given oral administration, and AUCIV and Div indicate the AUC and dosage for the intravenous (IV) administration set forth in Example 1, above.
Error bars for each point in time based on the results for each of the rats in the set are shown.

[5] = 1.1 mg/kg, 73.1±1.1 mg/kg crystalline DHM, enteric capsules (Eudragit L100-55 coated), Na caprate:DHM 0:1, FIG. 3A
[6] = 70.6±2.7 mg/kg crystalline DHM, enteric capsules, sodium caprate approx. 141.2 mg/kg (2:1), FIG. 3D
[7] = 75.5±2.0 mg/kg crystalline DHM, enteric capsules, sodium caprate approx. 75.5 mg/kg (1:1), FIG. 3C
[8] = 92.6±3.0 mg/kg crystalline DHM, enteric capsules, sodium caprate approx. 23.2 mg/kg (1:4), FIG. 3B

bioavailability ([1]; 1.1 mg/kg): 19.5 ± 9.5% | Tmax [1, 5]: 5.4 ± 2.6 h | AUC [1, 5]: 167 ± 83.3 ng·h/mL | Cmax [1, 5]: 27.9 ± 1.5 ng/mL | Tmax [1, 6]: 4 h | Tmax [1, 7]: 4 h | Tmax [1, 8]: 6 h | AUC [1, 6]: 431 ± 101 ng·h/mL | AUC [1, 7]: 284 ± 20.1 ng·h/mL | AUC [1, 8]: 222 ± 44.3 ng·h/mL | Cmax [1, 6]: 70.2 ± 6.5 ng/mL | Cmax [1, 7]: 62.3 ± 4.3 ng/mL | Cmax [1, 8]: 52.7 ± 3.6 ng/mL | AUC [2]: 11.6 ± 4.9 ng·h/mL | Cmax [2]: 12.5 ± 0.5 ng/mL | bioavailability ([4]; DHM Bioavailability (Fabs)): 34.1 ± 12.7% | AUC ([4]; po, DHM AUC): 314 ± 115 ng·h/mL | Cmax ([4]; po, DHM Cmax): 46.2 ± 4 ng/mL | Tmax ([4]; po, Tmax): 4.7 ± 1.8 h
SMILES: O=C1c2c(O)cc(O)cc2O[C@H](c2cc(O)c(O)c(O)c2)[C@H]1O [DHM, dihydromyricetin]
oral bioavailability [3]: less than 5%
